Assay results published in ChEMBL document CHEMBL1201862, “PubChem BioAssay data set” (2004).
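96-well plates; 48 h exposure; 5 concentrations. Endpoints by linear interpolation between flanking doses. Not reached: highest tested concentration assigned. GI50: concentration for 50% inhibition of growth.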 Activity calls are given as the source filed them. Cut-off read from the data, not from the text of the source: active = GI50 up to about 1.1 µM and inactive = higher.

Tests used:
Assay in all cases: growth of human tumour cells (NCI), 48 h
786-0 = system: 786-0
A498 = system: A498
DMS-273 = system: DMS-273
HCT-116 = system: HCT-116
HCT-15 = system: HCT-15
HOP-92 = system: HOP-92
HT-29 = system: HT-29
IGROV-1 = system: IGROV-1
OVCAR-3 = system: OVCAR-3
OVCAR-5 = system: OVCAR-5
RXF 393 = system: RXF 393
SF-539 = system: SF-539
SN12C = system: SN12C
TK-10 = system: TK-10
UO-31 = system: UO-31
MOLT-4 = system: MOLT-4
U-251 = system: U-251
BT-549 = system: BT-549
MDA-N = system: MDA-N
SR = system: SR

Compound	GI50 (786-0)	GI50 (A498)	GI50 (DMS-273)	GI50 (HCT-116)	GI50 (HCT-15) [µM]	GI50 (HOP-92)	GI50 (HT-29)	GI50 (IGROV-1)	GI50 (OVCAR-3)	GI50 (OVCAR-5)	GI50 (RXF 393)	GI50 (SF-539)	GI50 (SN12C)	GI50 (TK-10)	GI50 (UO-31)	GI50 (MOLT-4)	GI50 (U-251)	GI50 (BT-549)	GI50 (MDA-N)	GI50 (SR)
CC1=NN(C(=O)c2ccncc2)C(=O)C1/N=N/c1ccc(F)cc1 (stereo unspecified)	> 100 µM (inactive)	60.5 µM (inactive)	92.5 µM (inactive)	96.8 µM (inactive)	> 100	51.6 µM (inactive)	> 100 µM (inactive)	> 100 µM (inactive)	> 100 µM (inactive)	> 100 µM (inactive)	58.1 µM (inactive)	59.2 µM (inactive)	> 100 µM (inactive)	> 100 µM (inactive)	45.3 µM (inactive)	–	–	–	–	–
Cn1c2cc([N+](=O)[O-])ccc2c(=O)c2c(O)cc3c(c21)C=CC(C)(C)O3	44.3 µM (inactive)	33.5 µM (inactive)	54 µM (inactive)	–	> 100	–	> 100 µM (inactive)	31.1 µM (inactive)	–	32 µM (inactive)	25.9 µM (inactive)	14.8 µM (inactive)	> 100 µM (inactive)	37.1 µM (inactive)	26.7 µM (inactive)	> 100 µM (inactive)	> 100 µM (inactive)	–	–	–
C/C(=C\CBr)CCC(Br)C(C)(C)Br (stereo unspecified)	> 100 µM (inactive)	> 100 µM (inactive)	–	> 100 µM (inactive)	> 100	> 100 µM (inactive)	> 100 µM (inactive)	> 100 µM (inactive)	> 100 µM (inactive)	> 100 µM (inactive)	> 100 µM (inactive)	> 100 µM (inactive)	> 100 µM (inactive)	> 100 µM (inactive)	> 100 µM (inactive)	> 100 µM (inactive)	> 100 µM (inactive)	> 100 µM (inactive)	> 100 µM (inactive)	> 100 µM (inactive)
CC(=O)NC1C(OCc2ccccc2)OC(CO)C(O)C1OC(C)C(=O)NC(C(=O)NC(CCC(=O)NCCCCNc1c2ccccc2nc2cccc([N+](=O)[O-])c12)C(N)=O)C(C)C (stereo unspecified)	1.81 µM (inactive)	1.84 µM (inactive)	–	0.975 µM (active)	3.21	1.28 µM (inactive)	1.14 µM (inactive)	2.05 µM (inactive)	2.13 µM (inactive)	2.71 µM (inactive)	1.56 µM (inactive)	3.3 µM (inactive)	1.71 µM (inactive)	3.1 µM (inactive)	2.89 µM (inactive)	0.515 µM (active)	3.21 µM (inactive)	5.97 µM (inactive)	1.64 µM (inactive)	0.178 µM (active)
C=C1[C@H](OCC(C)C)[C@@H](O)[C@@H](OC(=O)c2cccnc2)C(C)(C)/C=C/[C@H](C)[C@H](OC(C)=O)[C@@]2(O)C[C@@](C)(OC(C)=O)[C@H](OC(=O)c3ccccc3)[C@@H]2[C@H]1OC(C)=O	1.67 µM (inactive)	0.482 µM (active)	–	1.59 µM (inactive)	1.16	0.723 µM (active)	0.0662 µM (active)	1.36 µM (inactive)	1.12 µM (active)	> 2.43 µM (inactive)	4.24 µM (inactive)	0.482 µM (active)	> 3.1 µM (inactive)	1.07 µM (active)	0.54 µM (active)	0.138 µM (active)	1.34 µM (inactive)	1.66 µM (inactive)	0.451 µM (active)	1.16 µM (inactive)
Cc1cc2c(c(C(N)=O)c1C)-c1cc(Cl)cc(Cl)c1C2=O	60.5 µM (inactive)	54.6 µM (inactive)	> 100 µM (inactive)	> 100 µM (inactive)	> 100	> 100 µM (inactive)	> 100 µM (inactive)	> 100 µM (inactive)	> 100 µM (inactive)	> 100 µM (inactive)	> 100 µM (inactive)	90.2 µM (inactive)	> 100 µM (inactive)	> 100 µM (inactive)	> 100 µM (inactive)	> 100 µM (inactive)	30.7 µM (inactive)	–	–	–
O=[N+]([O-])c1ccc2sc(/C=N/c3ccc(O)cc3)cc2c1	19 µM (inactive)	72.8 µM (inactive)	–	27.9 µM (inactive)	32.4	32.4 µM (inactive)	46.9 µM (inactive)	31.4 µM (inactive)	15.2 µM (inactive)	62.2 µM (inactive)	21.5 µM (inactive)	22 µM (inactive)	30.1 µM (inactive)	63.7 µM (inactive)	41 µM (inactive)	15.8 µM (inactive)	19.8 µM (inactive)	22.3 µM (inactive)	27.3 µM (inactive)	29.1 µM (inactive)
CCOC(=O)C1=C(C)N(NC(=O)Nc2ccccc2)C2(N)N(NC(=O)Nc3ccccc3)C(C)=C(C(=O)OCC)C12C#N (stereo unspecified)	18 µM (inactive)	22.3 µM (inactive)	17 µM (inactive)	17.5 µM (inactive)	19.4	20.2 µM (inactive)	20.7 µM (inactive)	19.7 µM (inactive)	17.5 µM (inactive)	17.8 µM (inactive)	13.6 µM (inactive)	–	17.6 µM (inactive)	25.2 µM (inactive)	> 100 µM (inactive)	21.6 µM (inactive)	18.4 µM (inactive)	–	–	–
COC(=O)C(I(OS(=O)(=O)c1ccc(C)cc1)c1ccccc1)=P(c1ccccc1)(c1ccccc1)c1ccccc1	12.4 µM (inactive)	18.2 µM (inactive)	–	16.3 µM (inactive)	35.3	14.7 µM (inactive)	20.6 µM (inactive)	17.1 µM (inactive)	16.4 µM (inactive)	28.6 µM (inactive)	20.5 µM (inactive)	19.4 µM (inactive)	43.2 µM (inactive)	23.6 µM (inactive)	22.2 µM (inactive)	20.7 µM (inactive)	20.7 µM (inactive)	21.2 µM (inactive)	14.1 µM (inactive)	19.4 µM (inactive)
COC(=O)c1ccc(C(=O)OC)c2nc3cc(Cl)ccc3nc12	> 100 µM (inactive)	> 100 µM (inactive)	> 100 µM (inactive)	> 100 µM (inactive)	> 100	> 100 µM (inactive)	75.3 µM (inactive)	> 100 µM (inactive)	> 100 µM (inactive)	> 100 µM (inactive)	–	> 100 µM (inactive)	> 100 µM (inactive)	> 100 µM (inactive)	> 100 µM (inactive)	> 100 µM (inactive)	> 100 µM (inactive)	–	–	–
CC(=O)N[C@@H](Cc1ccc(O)cn1)C(=O)NCc1ccc2c(c1)OCO2	> 100 µM (inactive)	> 100 µM (inactive)	–	> 100 µM (inactive)	> 100	> 100 µM (inactive)	> 100 µM (inactive)	> 100 µM (inactive)	> 100 µM (inactive)	> 100 µM (inactive)	> 100 µM (inactive)	> 100 µM (inactive)	> 100 µM (inactive)	> 100 µM (inactive)	> 100 µM (inactive)	> 100 µM (inactive)	> 100 µM (inactive)	> 100 µM (inactive)	> 100 µM (inactive)	> 100 µM (inactive)
CCc1nc(N)nc(N)c1-c1ccc2c(c1)nnn2CCc1ccccc1	5.89 µM (inactive)	24.1 µM (inactive)	–	2.36 µM (inactive)	3.09	38.4 µM (inactive)	3.53 µM (inactive)	4.72 µM (inactive)	16.6 µM (inactive)	> 60.5 µM (inactive)	26.4 µM (inactive)	21.3 µM (inactive)	22.5 µM (inactive)	35.4 µM (inactive)	16.3 µM (inactive)	8.91 µM (inactive)	7.69 µM (inactive)	22.9 µM (inactive)	6.1 µM (inactive)	5.18 µM (inactive)
Cc1ccc(/C=C/C(=O)c2sc(-c3cccnc3)nc2C)cc1	> 100 µM (inactive)	> 100 µM (inactive)	> 100 µM (inactive)	–	> 100	> 100 µM (inactive)	> 100 µM (inactive)	> 100 µM (inactive)	> 100 µM (inactive)	> 100 µM (inactive)	98.9 µM (inactive)	> 100 µM (inactive)	> 100 µM (inactive)	> 100 µM (inactive)	> 100 µM (inactive)	> 100 µM (inactive)	> 100 µM (inactive)	–	–	–
Cc1nc(Nc2ccccc2)sc1C(=O)CC(=O)C(=O)NC12CC3CC(CC(C3)C1)C2	> 100 µM (inactive)	–	> 100 µM (inactive)	> 100 µM (inactive)	> 100	23 µM (inactive)	> 100 µM (inactive)	84.5 µM (inactive)	> 100 µM (inactive)	> 100 µM (inactive)	54.6 µM (inactive)	> 100 µM (inactive)	> 100 µM (inactive)	> 100 µM (inactive)	92.3 µM (inactive)	> 100 µM (inactive)	> 100 µM (inactive)	–	–	–
CC(C)=CCCC(C)CCOS(=O)C(F)(F)F (stereo unspecified)	> 100 µM (inactive)	20.8 µM (inactive)	–	12.6 µM (inactive)	2.49	18.7 µM (inactive)	5.12 µM (inactive)	12.8 µM (inactive)	11.2 µM (inactive)	11 µM (inactive)	1.89 µM (inactive)	31.3 µM (inactive)	7.93 µM (inactive)	> 100 µM (inactive)	13.1 µM (inactive)	2.58 µM (inactive)	9.66 µM (inactive)	5.24 µM (inactive)	1.6 µM (inactive)	1.92 µM (inactive)
O=c1ccs[nH]1	6.15 µM (inactive)	46.8 µM (inactive)	–	8.79 µM (inactive)	11.6	16.7 µM (inactive)	11.2 µM (inactive)	24.2 µM (inactive)	8.17 µM (inactive)	16.3 µM (inactive)	7.96 µM (inactive)	5.92 µM (inactive)	11.1 µM (inactive)	13.8 µM (inactive)	7.21 µM (inactive)	4.53 µM (inactive)	7.21 µM (inactive)	16.8 µM (inactive)	17.5 µM (inactive)	2.54 µM (inactive)
